The values that follow come from US20110263423A1, “Plant Health Composition” (BASF SE, priority 2008, published 2011).

For this assay, the system named is Maize (Pioneer 34-N-45). The assay is described as follows: Maize field trial, mixture with epoxiconazol, Colby synergism (Example 6). The assay is classed as in vivo. As to conditions: 50 g a.i./ha of each compound. Here is the method: Maize was grown in 2008 in a field trial at the BASF experimental station in Dinuba, 10181 Avenue 416, Calif., U.S.A. The variety Pioneer 34-N-45 was planted at a seeding rate of 35.000 plants/ha. The trial was setup as a randomized bloc design with 5 replications, each. Plot size was 43 m^2.
The maize plants were either untreted, treated with epoxiconazol (A3), with compound Ia, and with a mixture comprising compound Ia and epoxiconazol. Epoxiconazol was applied as the commercial formulation OPUS™ (125 g a.i./L, SC formulation) at a dose rate of 0.4 L/ha (50 g a.i./ha). Compound Ia was used as an EC formulation (62.5 g a.i./L) with a dose rate of 0.8 L per hectar (50 g a.i./ha). Epoxiconazol was applied together with compound Ia (as a mixture) using a co-formulation of both compounds (EC formulation, 62.5 g a.i./L each) with a product rate of 0.8 L/ha. The formulation was applied in a total spray volume of 300 L/ha. Compound Ia was sprayed at growth stage 51/55 (BBCH) with a tractor mounted spray boom with VS11003 spray nozzles at 3 bar spray pressure.
No disease symptoms were visible at the application time and no symptoms were detected at later stages.
At maturity the grain was harvested and the grain yield per plot, as an indicator of plant yield, was determined (kg/plot). Finally, the grain yield per hectare was calculated (dt/ha).
The efficacy was calculated as % increase of the grain yield (dt/ha) by each treatment compared to the untreated control.
The expected efficacies of the combinations of the active compounds were estimated using Colby's formula (Colby, S. R., Calculating synergistic and antagonistic responses of herbicide combinations, Weeds, 15, pp. 20-22, 1967) and compared with the observed efficacies.
E=x+y−x·y/100 Colby's formula: • E expected efficacy, expressed in % of the untreated control, when using the mixture of the active compounds A and B at the concentrations a and b • x efficacy, expressed in % of the untreated control, when using the active ingredient A at the concentration a • y efficacy, expressed in % of the untreated control, when using the active ingredient B at the concentration b

On to `Fc1ccc([C@]2(Cn3cncn3)O[C@H]2c2ccccc2Cl)cc1` (racemic) [Epoxiconazol (A3), epoxiconazole, reference compound], for which the “Observed efficacy (% increase of grain yield vs untreated control)” value was 0.9%. The Grain yield (BBCH 51/55) was determined as 155.8 dt/ha.
